# Key:
# [1] = tested on: syngeneic intracranial GL261 glioma; assay: Confocal microscopy of brain slices of GL261 glioma mice after i.v. dual-labeled liposomes; assay type: in vivo; conditions: 48 h post-injection, EPC/DSPE-PEG2000 liposomes, 0.2% DiI and 0.2% Cy5-DSPE
# Protocol: (§1) 4T1 cell line was purchased from the ATCC and verified using a sequencing core. GL261 cells were obtained from the National Cancer Institute (NCI), and CT2A cells were a gift from Dr. Tom Seyfried (Boston College). LY2 cells were from Dr. Sana Karam, University of Colorado Anschutz Medical campus. Cells were grown at 37° C. in RPMI 1640 medium containing 10% heat-inactivated fetal bovine serum, 10 mM HEPES, 100 U/ml penicillin, and […] streptomycin (all from Corning Inc. New York, NY, USA). BALB/c mice were bred in-house. Mice of 8-10 weeks of age (females) were implanted with 0.5×10^6 cells into the mammary fat pad (4T1) or subcutaneously in the jaw region (LY2) and used for experiments 1 week later when tumors reached ˜200-300 mm^3. […]
# Nikon Eclipse AR1HD inverted confocal microscope with 405 nm, 488 nm, 561 nm, and 640 nm excitation lasers and corresponding emission filters was used. […] For quantification, multiple random image areas from different slices of the tumor (both periphery and center) were acquired at 512×512 resolution. Images were quantified with Fiji using customized macros. Briefly, 8-bit gray image stacks were thresholded for fluorescence in the Cy3 and Cy5 channels and the percentages of binary (positive) areas were calculated using the “Measure” function. […]
# [2] = tested on: 4T1 tumor cells and F4/80+ tumor-associated macrophages; assay: Flow cytometry of 4T1 tumor single-cell suspension after i.v. labeled liposomes; assay type: in vivo, mice; conditions: 72 h after a single i.v. injection; liposomes labeled with 0.2% dye
# Protocol: as §1, with “mm^3. For brain tumors, C57BL/6 mice (6-8 weeks old) were implanted with a total 1×10^5 GL261 or CT-2A cells per animal using an established protocol.” for “mm^3.”
# A single-cell suspension of tumor tissue was prepared for flow cytometry analysis, as previously described. […] After incubation on ice for 20 minutes and washing, cells were analyzed for staining using the Guava EasyCyte HT flow cytometer (Merck KGaA). Cells were resuspended at ˜0.5 million/ml, and 20,000 events were detected. Dead cells and fragments were excluded with FSC/SSC dot plot, and the percentage of Cy5+ cells was analyzed with FlowJo software Version 10.6 (FlowJo, LLC). […]
# [3] = Plasma fluorescence elimination profile after liposome injection; assay type: in vivo, mice; conditions: 24 h post-injection; DiI/Cy5-DSPE liposomes
# Protocol: as §1, with “mm^3. For brain tumors, C57BL/6 mice (6-8 weeks old) were implanted with a total 1×10^5 GL261 or CT-2A cells per animal using an established protocol.” for “mm^3.”
# Tumors and livers were placed in a 24-well plate and scanned as described above. […] Mean fluorescence was determined from 8-bit TIFF images using Fiji software by drawing a region of interest around the tumors and using the “Measure” function to determine mean gray values. […] For plasma fluorescence profile, plasma collected at different time points was serially diluted, dotted on a nitrocellulose membrane, scanned as above, and the mean fluorescence of dots was plotted versus time with Prism.
# [4] = Ex vivo fluorescence imaging of excised tumors and livers; assay type: in vivo, mice
# Protocol: Tumors and livers were placed in a 24-well plate and scanned as described above. To match the intensity of the channels, the same liposomes used for injection were diluted (1:10), dotted on a 0.45 μm nitrocellulose membrane, and scanned together with the samples. Mean fluorescence was determined from 8-bit TIFF images using Fiji software by drawing a region of interest around the tumors and using the “Measure” function to determine mean gray values. Such measurement is independent of the organ cross-section area. The mean gray values of non-injected tumors were subtracted from the measurements. For plasma fluorescence profile, plasma collected at different time points was serially diluted, dotted on a nitrocellulose membrane, scanned as above, and the mean fluorescence of dots was plotted versus time with Prism.
# [5] = Lipid extraction of tumors and organs, dye biodistribution; assay type: in vivo, mice; conditions: 48 h post-injection
# Protocol: (§2) For extraction using a modified Bligh-Dyer method, 50-100 mg tissue was homogenized as described above, 10 parts of chloroform/methanol (2:1) were added to the homogenate (considering that tissue weight is 1 part), and the samples were mixed at 1400 rpm for 2 h at room temperature on Eppendorf Thermomixer. The tubes were centrifuged at 500 g for 10 min. The organic phase (bottom, approximately 80% of the added amount) was carefully collected, dotted on a PVDF membrane and scanned for DiI and Cy5 fluorescence as described above. Different dilutions of liposomes (standard curve) were scanned together with the samples. The percentage of the injected DiI and Cy5 in the extract was calculated from the standard curve and divided by tissue weight. The fluorescence of control non-injected organs was subtracted from that of injected organs. For TLC analysis, the mobile phase consisted of chloroform: methanol (9:1) with 1% trifluoroacetic acid and the samples were run on TLC Silica Gel 60 F254 plates (EMD Millipore).
# [6] = TLC of liver extracts of mice injected with liposomes; assay type: in vivo; conditions: 24 h and 48 h post-injection of DiI/Cy5-DSPE liposomes
# Protocol: as §2
structure (smiles),measurement,setting,value
CCCCCCCCCCCCCCCCCC(=O)OC[C@H](COP(=O)(O)OCCNC(=O)CCCCCN1C(=CC=CC=CC2=[N+](C)c3ccccc3C2(C)C)C(C)(C)c2ccccc21)OC(=O)CCCCCCCCCCCCCCCCC [Cy5-DSPE],accumulation and spreading in glioma,[1],almost complete absence
same,accumulation in cells in the tumor,[2],minimal accumulation
same,dye cleared from the circulation,[3],approximately 80%
same,fluorescence in liver images over time,"[4]; livers, later time points versus 1 h",decrease
same,fluorescence in tumor images over time,"[4]; tumors, 1 h, 24 h, 48 h post-injection",plateaued at 24 h and dropped at 48 h
same,tissues with the highest dye amount,[5],highest in the tumor and kidney
same,dye amount in tumor and organ extracts over time,"[5]; tumors, livers, spleens, kidneys, 1 h, 24 h",dropped over time in all the organs
same,TLC of liver extracts of injected mice,[6],degradation and disappearance

# Source: patent publication US20240299553A1, “INDOCARBOCYANINE LIPID DERIVATIVES FOR IN VIVO CARGO DELIVERY” (priority 2021, published 2024)
